Reference: US20200121620A1, “SENOLYTIC COMPOUNDS” (UNITED KINGDOM RESEARCH AND INNOVATION, priority 2017, published 2020)

Tests used:
IMR90 ER:RAS E6/E7 cells = experiment: Killing of IMR90 ER:RAS E6/E7 cells (RAS signalling without senescence); format: cell-based, human; conditions: 1, 5 and 10 μM; 4OHT vs DMSO; FIG. 5
Description: In these experiments the compounds were tested side by side with a control ABT-263 (the de facto gold standard senolytic compound) (Chang et al., 2016; Yosef et al., 2016; Zhu et al., 2016). Experiments were conducted to test the ability of the compounds to behave as senolytics during OIS (using IMR90 ER:RAS, FIG. 3 and HMEC hTERT ER:RAS, FIG. 4). […] To understand whether the selective killing of senescent IMR90 ER:RAS was a consequence of senescence induction or of activation of RAS signaling, experiments were conducted in isogenic IMR90 ER:RAS E6/E7 cells. In these cells, RAS signalling is induced by adding 100 nM 4OHT that activates the ER:RAS fusion protein. However, expression of the E6/E7 protein prevents senescence induction.

[1] = system: senescent cells in the lung; experiment: Elimination of senescent cells induced by whole body irradiation in mice; format: in vivo; conditions: 6 Gray whole body irradiation; 2 months later treated for 4 consecutive days; FIG. 16
Text: (A) Experimental set up, mice (n=5 per group) were irradiated with 6 Gray to induce senescence. […] (B) Cryosections of lungs obtained from control and irradiated mice were stained with hematoxilin and eosin (to reveal tissue architecture), and SA-β-Gal (to reveal senescent cells). Senescent cells accumulate in the bronchioles of irradiated mice. (C) Quantification of the lung area positive for SA-β-Gal staining. […] (D). Representative pictures of lung cryosections.
Whole-body irradiation is known to cause senescence. In irradiated mice, senescent cells accumulate in different tissues, including the lung (Chang et al., 2016; Yosef et al., 2016).

[2] = system: senescent human fibroblasts; conditions: Lui et al, Sci Rep 2015; cited from earlier work
IMR90 ER:RAS cells = experiment: Senolytic activity in IMR90 ER:RAS cells undergoing oncogene-induced senescence (4OHT) vs DMSO-treated non-senescent cells; conditions: 4OHT vs DMSO; FIG. 11
Description: FIG. 1: (A) IMR90 ER:RAS cells were induced to undergo senescence by treating them with 100 nM 4OHT for 6 days. At that point, 10 μM of the indicated drugs was added. In parallel, the same treatments were carried out in IMR90 ER:RAS cells treated with DMSO (−4OHT). […] Cells were fixed at day 6, 8 and 10 after 4OHT induction and stained with crystal violet to assess cell viability. T, Tyr-AG879; P, PF-573228; C, Cyclosporine. (B) A similar experiment to (A) was conducted and cells at day 10 post-induction were fixed and stained with DAPI to assess cell numbers
In the setup used, IMR90 ER:RAS cells were treated with 100 nM 4OHT to induce OIS (oncogene induced senescence) and activate the ER:RAS fusion protein. 6 days after 4OHT induction (+4OHT), once cells were fully senescent, the agents to be tested were added at a concentration of 10 μM, and cell numbers were assessed 4 days after by DAPI stained couple to automated microscopy. Alternatively, cells were fixed and stained with crystal violet. In parallel, the same treatments were carried out in IMR90 ER:RAS cells treated with DMSO (−4OHT).
IMR90 ER:RAS cells were induced to undergo senescence by treating them with 100 nM 4OHT for 6 days. At that point, 10 μM of the indicated drugs was added. In parallel, the same treatments were carried out in IMR90 ER:RAS cells treated with DMSO (−4OHT). […] Cells were fixed at day 6, 8 and 10 after 4OHT induction and stained with crystal violet to assess cell viability. A similar experiment was conducted and cells at day 10 post-induction were fixed and stained with DAPI to assess cell numbers (see FIG. 1).

Compound | selectivity for killing IMR90 ER:RAS E6/E7 (IMR90 ER:RAS E6/E7 cells) | lung area positive for SA-β-Gal staining (senescent cells) [1] | senescence-associated secretory phenotype (SASP) [2] | senolytic effect of statins, preferential killing of cells undergoing OIS (IMR90 ER:RAS cells)
c1ccc2c(c1)[IH]c1ccccc1-2 [Diphenyleneiodonium chloride] | displayed selectivity for killing IMR90 ER:RAS E6/E7 | partially eliminated |  | 
CCC(C)(C)C(=O)O[C@H]1C[C@@H](C)C=C2C=C[C@H](C)[C@H](CC[C@@H]3C[C@@H](O)CC(=O)O3)[C@H]21 [Simvastatin] |  |  | decrease the senescence-associated secretory phenotype (SASP) | behaves as a senolytic in a concentration dependent manner
